Tests used:
[1] = Experiment 4: in vivo pharmacokinetic behavior, rapamycin level in blood; design: species or system male Sprague-Dawley rats; details: rats, intravenous administration
Description: The in vivo pharmacokinetic behavior of the rapamycin-entrapping nanoparticle composition of Example 1 was evaluated. For animal experiment, male Sprague-Dawley rats weighing 210 to 250 g were used, and 0.3 ml of whole blood was taken from caudal vein every 5, 15 and 30 minutes, and 1, 2, 4, 8 and 24 hours after intravenous and subcutaneous injection of the dose of 5 mg/kg, on the basis of rapamycin. The collected whole blood was treated with the Protein Precipitation (PPT, Progress in Pharmaceutical and Biomedical Analysis, Volume 5, 2003, Pages 199-254) and then centrifuged to obtain 0.15 ml of clear supernatant which was analyzed to check the rapamycin concentration in blood by LC/MS/MS method.
The in vivo pharmacokinetic behavior of the rapamycin-entrapping nanoparticle composition of Example 2 was evaluated by means of the same method as in Experiment 1. However, the composition was administered via oral, intravenous or subcutaneous route in the dose of 10 mg/kg on the basis of rapamycin, and 0.3 ml of whole blood was taken from caudal vein every 15 and 30 minutes, and 1, 2, 4, 8, 24 and 48 hours after administration.

[2] = cited from earlier work
[3] = male, Sprague-Dawley, rat, whole blood, 10 mg/kg

AUC(0-t) ([1]; male, Sprague-Dawley, rat, whole blood, 10 mg/kg on the basis of rapamycin): 5370 ng·h/mL | AUC(0-inf) [1, 3]: 5600 ng·h/mL | Cmax [1, 3]: 2890 ng/mL | Tmax [1, 3]: 0.25 h | half-life [1, 3]: 10.5 h | F ([1]; 10 mg/kg, free sirolimus intravenous = 100): 100%
Structure (SMILES): CO[C@H]1C[C@@H]2CC[C@@H](C)[C@@](O)(O2)C(=O)C(=O)N2CCCC[C@H]2C(=O)O[C@H]([C@H](C)C[C@@H]2CC[C@@H](O)[C@H](OC)C2)CC(=O)[C@H](C)/C=C(\C)[C@@H](O)[C@@H](OC)C(=O)[C@H](C)C[C@H](C)/C=C/C=C/C=C/1C [rapamycin, Rapamycin]
solubility in water [2]: 1 to 2 µg/mL

Reference: patent US9173841B2, “Polymer nanoparticle injection formulation composition containing rapamycin with improved water solubility, preparation method thereof, and anticancer composition for combined use with radiotherapy” (SAMYANG BIOPHARMACEUTICALS CORPORATION, priority 2009, dated 2015)
